# From paper PMC6142691, “Cannabidiol enhances morphine antinociception, diminishes NMDA-mediated seizures and reduces stroke damage via the sigma 1 receptor” (Molecular Brain, 2018)
# Columns and labels:
# sigma 1 receptor (σ1R) [1] = target: T1, sigma 1 receptor (σ1R) (Mus musculus, UniProt O55242); test: biochemical; parameters: gene Sigmar1
# sigma 1 receptor (σ1R) [2] = target: T1, sigma 1 receptor (σ1R); test: in vitro pull-down: reversal of progesterone/CBD-induced disruption of recombinant σ1R-NR1 complex; type: biochemical; parameters: gene Sigmar1; murine full-length (1–223) σ1R, recombinant from E. coli, GST-free; with NMDAR NR1 subunit C-terminal region (residues 827–938)
# sigma 1 receptor (σ1R) [3] = target: T1, sigma 1 receptor (σ1R); test: in vitro pull-down: disruption of recombinant σ1R-NR1 complex, immunoblot; type: binding; parameters: gene Sigmar1; murine full-length (1–223) σ1R, recombinant from E. coli, GST-free; with NMDAR NR1 subunit C-terminal region (residues 827–938)
# T1 sequence (O55242 whole entry, the tested form may be a part): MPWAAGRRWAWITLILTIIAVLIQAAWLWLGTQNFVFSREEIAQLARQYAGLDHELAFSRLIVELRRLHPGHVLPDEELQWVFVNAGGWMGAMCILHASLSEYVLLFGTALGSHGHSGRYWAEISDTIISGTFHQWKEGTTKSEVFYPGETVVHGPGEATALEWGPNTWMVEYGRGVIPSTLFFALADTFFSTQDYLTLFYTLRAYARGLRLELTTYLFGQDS
# T1 sequence (P35438 827-938 partner): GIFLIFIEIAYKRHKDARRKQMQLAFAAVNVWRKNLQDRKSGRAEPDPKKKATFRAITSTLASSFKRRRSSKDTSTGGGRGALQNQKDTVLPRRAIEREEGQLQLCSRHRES
Compound,in vitro pull-down: reversal of progesterone/CBD-induced disruption of recombina (sigma 1 receptor (σ1R) [2]),EC50 (sigma 1 receptor (σ1R) [3]) [nM],further results
COC(=O)[C@]1(c2ccc(C)cc2)C[C@@H]1CN1CCC(O)(c2ccccc2)CC1 (racemic) [PPCC],,,Ki (sigma 1 receptor (σ1R) [1]): 0.06 nM
O=C(NC1CCN(Cc2ccccc2)CC1)c1ccc(I)cc1 [4-IBP],"PPCC, PRE084 and 4-IBP did not alter σ1R-NR1 associations but reduced the capacity of progesterone and CBD",,
CN1CCN(CCc2ccc(Cl)c(Cl)c2)CC1 [BD1063],,~0.03,
"C=C(C)[C@@H]1CCC(C)=C[C@H]1c1c(O)cc(CCCCC)cc1O [CBD, Cannabidiol]",,~0.1,
O=C(OCCN1CCOCC1)C1(c2ccccc2)CCCCC1 [PRE084],"PPCC, PRE084 and 4-IBP did not alter σ1R-NR1 associations but reduced the capacity of progesterone and CBD",,
CC(=O)[C@H]1CC[C@H]2[C@@H]3CCC4=CC(=O)CC[C@]4(C)[C@H]3CC[C@]12C [Progesterone],,~0.03,
